Test results published in paper PMC11720011, “Single Disulfide Bond in Host Defense Thanatin Analog Peptides: Antimicrobial Activity, Atomic-Resolution Structures and Target Interactions” (International Journal of Molecular Sciences, 2024).
≈ marks a conversion by molar mass, not a printed value. Residues, ends and D or L forms follow the SMILES beside them.

B1: VF16QK, disulfide-bonded 16-residue thanatin analog peptide (peptide)
peptide: VPIIYCNRRTKKCKRF
HELM: PEPTIDE1{V.P.I.I.Y.C.N.R.R.T.[dK].K.C.K.R.F.[am]}$PEPTIDE1,PEPTIDE1,6:R3-13:R3$$$V2.0; N-terminus assumed
SMILES: CC[C@H](C)[C@H](NC(=O)[C@@H](NC(=O)[C@@H]1CCCN1C(=O)[C@@H](N)C(C)C)[C@@H](C)CC)C(=O)N[C@@H](Cc1ccc(O)cc1)C(=O)N[C@H]1CSSC[C@@H](C(=O)N[C@@H](CCCCN)C(=O)N[C@@H](CCCNC(=N)N)C(=O)N[C@@H](Cc2ccccc2)C(N)=O)NC(=O)[C@H](CCCCN)NC(=O)[C@@H](CCCCN)NC(=O)[C@H]([C@@H](C)O)NC(=O)[C@H](CCCNC(=N)N)NC(=O)[C@H](CCCNC(=N)N)NC(=O)[C@H](CC(N)=O)NC1=O
notes: Analog of thanatin of Podisus maculiventris (21 residues) without its five N-terminal residues; also called VK16QK; source: synthetic peptide; bought: GL Biochem, Shanghai

Columns and labels:
[1] = tested on: Klebsiella pneumoniae ATCC 13883 (KP); assay type: cell-based; conditions: ATCC 13883, 18 h
Experimental: (§1) Antibacterial activities of the VF16QK and VF16QK^Ser peptides (GL Biochem, Shanghai, China) were determined using the broth dilution method. Bacterial strains of Escherichia coli ATCC 25922 (EC); Salmonella enterica ATCC 14028 (SE); Klebsiella pneumoniae ATCC 13883 (KP); Acinetobacter baumannii ATCC BAA-1798 (AB) Streptococcus pyogenes ATCC 19615 (SP) and Enterococcus faecalis ATCC 29212 (EF) were used for this study.
(§2) Typically, overnight cultures of bacterial cells were grown to mid-log phase and diluted in 2X Mueller Hinton (MH) broth (Millipore-Sigma^TM, Saint Louis, MO, USA) to a final OD600 of 0.002. In a 96-well plate, 100 μL of the diluted bacterial solutions and 100 μL of the VF16QK and VF16QK^Ser peptides in concentrations ranging from 0.5 μM to 8 μM were incubated at 37 °C for 18 h.

[2] = tested on: Escherichia coli ATCC 25922 (EC); assay type: cell-based; conditions: ATCC 25922, 18 h
Experimental: as §1, §2

[3] = tested on: Enterococcus faecalis ATCC 29212 (EF); assay type: cell-based; conditions: ATCC 29212, 18 h
Experimental: as §1, §2

[4] = tested on: ATCC strains of E. coli, K. pneumoniae, S. enterica, S. pyogenes and E. faecalis; assay type: cell-based; conditions: 18 h
Experimental: as §1, §2

[5] = tested on: Streptococcus pyogenes ATCC 19615 (SP); assay type: cell-based; conditions: ATCC 19615, 18 h
Experimental: as §1, §2

[6] = target: T1, LptAm, the periplasmic LPS transport protein of E. coli (Escherichia coli, UniProt P0ADV1); assay: Isothermal titration calorimetry (ITC) with LptAm; assay type: binding; conditions: in words
T1 construct: His-tagged LptAm (residues 28–159) of E. coli; His-tag; made in house; host or cells: E. coli BL21
Experimental: Figure 2 Isothermal titration calorimetry (ITC) of binding interactions of VF16QK with (A) LptAm, the periplasmic LPS transport protein of E. coli, and (B) the LPS-outer membrane. LptAm-peptide ITC studies were carried out in 50 mM of sodium phosphate buffer and 150 mM of NaCl at pH 7.0 and 25 °C. LptAm proteins in sample cells were titrated with 2 μL aliquots of peptides and the heat exchange was measured. For LPS–peptide interactions, LPS in sample cells were titrated with 2 μL aliquots of peptides in 10 mM of sodium phosphate buffer, pH 7.0, 37 °C.
The binding interactions of the thanatin peptides VF16QK and VF16QK^Ser with the LPS-outer membrane and LptAm were determined using ITC. LPS and peptide samples were prepared in 10 mM of sodium phosphate buffer, pH 7.0. Typically, twenty injections, or 2.0 μL of peptides (1 mM in syringe), were titrated into the sample cell containing LPS ([…]) at 37 °C with a stirring speed of 750 rpm. […] ITC data were analyzed following single site binding in Microcal origin 5.0 software to determine the association constant (Ka) and change of enthalpy (ΔH). The dissociation constant (Kd), change of free energy (ΔG) and change of entropy (TΔS) were calculated as: Kd = 1/Ka, ΔG = ΔH − TΔS, respectively. […]

[7] = tested on: LPS-outer membrane of E. coli cells; assay: Outer membrane permeabilization assay (NPN fluorescence); assay type: cell-based; conditions: E. coli cells OD600 ~0.5, 10 mM sodium phosphate, peptide 1 to 16 µM, excitation 350 nm, emission 390–450 nm; in words
Experimental: (§3) Figure 1 (A) Fluorescence emission spectra of NPN as a function of concentrations of the VF16QK and VF16QK^ser peptides in E. coli cell solutions. 10 μM of fluorescence probes were prepared in 10 mM of sodium phosphate buffer with a fixed bacterial cell density of 0.5. Fluorescence spectra were recorded with an excitation wavelength of 350 nm and emission of 390–450 nm. (B) Plot showing z potential changes of E. coli cells as a function of concentrations, 2 to 32 μM, of the VF16QK and VF16QK peptides.
VF16QK and VF16QK^Ser were assessed for their ability to permeabilize the LPS-outer membrane of E. coli cells by use of the fluorescence probe 1-N-phenylnapthylamine (NPN). Bacterial cells were prepared from a mid-log culture in 10 mM of sodium phosphate with an adjusted OD600 ~ 0.5. A basal fluorescence of […] NPN in bacterial suspension, in absence of peptide, was measured followed by sequential additions of peptides from 1 to 16 µM. Fluorescence experiments were conducted in a Cary Eclipse spectrophotometer (Varian, Palo Alto, CA, USA) using a 0.1 cm quartz cuvette. An excitation wavelength of 350 nm and emission was recorded from 390–450 nm.

E. coli cells = assay: Zeta potential measurements (surface charge neutralization); assay type: cell-based; conditions: 10 mM sodium phosphate pH 7, peptide up to 32 μM, three replicates, in words
Experimental: as §3
Zeta potential measurements were performed in a Zeta Sizer Nano ZS (Malvern Instruments, Worcestershire, UK) instrument equipped with a 633 nm He laser. Mid-log phase E. coli cultures were centrifuged at 5000 rpm for 10 min and prepared in 10 mM of sodium phosphate buffer, pH 7. Z potential values of bacterial cell suspension were obtained from 1 to 32 μM of the peptides in zeta cells with gold electrodes. For individual measurement, 100 runs were carried out and three replicates were performed.

[8] = target: T2, LptAm, truncated functional deletion variant of the periplasmic LPS transport protein LptA of E. coli (E. coli, UniProt P0ADV1 28-159); assay: ITC; peptide (250 uM in syringe, 20 injections of 2 uL) titrated into LptAm in the sample cell (25 mM [sic]); 50 mM sodium phosphate, 150 mM NaCl, pH 7.0, 25 °C; single site binding fit; conditions: both partners purified
T2 construct: LptA of E. coli, residues 28-159 (LptAm); no removal of the His tag is told; also called His-tagged LptAm; source: E. coli BL21, purified (Ni-NTA, size-exclusion chromatography)
T2 sequence (looked up): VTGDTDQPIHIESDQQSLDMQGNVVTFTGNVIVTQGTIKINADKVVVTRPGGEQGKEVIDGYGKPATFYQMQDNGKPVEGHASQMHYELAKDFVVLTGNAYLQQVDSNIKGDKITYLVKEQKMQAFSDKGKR

Row | Molecule | MIC, KP [1] [µM] | MIC, EC [2] [µM] | MIC, EF [3] [µM] | MIC values over Gram-negative and Gram-positive bacterial strains [4] [µM] | MIC, SP [5] [µM] | nature of binding to LptAm (heat of exchange) [6] | NPN fluorescence emission (LPS-outer membrane permeabilization) [7] | neutralization of surface charge (zeta potential) (E. coli cells) | Kd [8] [nM] | dH [8] [kcal/mol]
1 | CC[C@H](C)[C@H](NC(=O)[C@@H](NC(=O)[C@@H]1CCCN1C(=O)[C@@H](N)C(C)C)[C@@H](C)CC)C(=O)N[C@@H](Cc1ccc(O)cc1)C(=O)N[C@H]1CSSC[C@@H](C(=O)N[C@@H](CCCCN)C(=O)N[C@@H](CCCNC(=N)N)C(=O)N[C@@H](Cc2ccccc2)C(N)=O)NC(=O)[C@H](CCCCN)NC(=O)[C@@H](CCCCN)NC(=O)[C@H]([C@@H](C)O)NC(=O)[C@H](CCCNC(=N)N)NC(=O)[C@H](CCCNC(=N)N)NC(=O)[C@H](CC(N)=O)NC1=O [VF16QK] (HELM PEPTIDE1{V.P.I.I.Y.C.N.R.R.T.[dK].K.C.K.R.F.[am]}$PEPTIDE1,PEPTIDE1,6:R3-13:R3$$$V2.0) | 1 to 2 | 1 to 4 | 1 (≈ 2.02 µg/mL) | 1 to 4 | 1 (≈ 2.02 µg/mL) | – | – | – | – | –
2 | CC[C@H](C)[C@H](NC(=O)[C@@H](NC(=O)[C@@H]1CCCN1C(=O)[C@@H](N)C(C)C)[C@@H](C)CC)C(=O)N[C@@H](Cc1ccc(O)cc1)C(=O)N[C@@H](CO)C(=O)N[C@@H](CC(N)=O)C(=O)N[C@@H](CCCNC(=N)N)C(=O)N[C@@H](CCCNC(=N)N)C(=O)N[C@H](C(=O)N[C@H](CCCCN)C(=O)N[C@@H](CCCCN)C(=O)N[C@@H](CO)C(=O)N[C@@H](CCCCN)C(=O)N[C@@H](CCCNC(=N)N)C(=O)N[C@@H](Cc1ccccc1)C(N)=O)[C@@H](C)O [VF16QK^Ser] (HELM PEPTIDE1{V.P.I.I.Y.S.N.R.R.T.[dK].K.S.K.R.F.[am]}$$$$V2.0; N-terminus and C-terminus assumed) | – | – | – | > 16 | – | endothermic binding | significantly diminished LPS-outer membrane permeabilization | less effective | – | –
3 | B1 | – | – | – | – | – | – | – | – | 400 | -10.2
